Experimental data taken from patent US5593970A, “Heterocyclic anthracycline analogs” (priority 1994, dated 1997).
Where “and” joins values, the source holds several entries; their conditions need not be identical. Identical values can stand only once. Like-named read-outs stand apart in the source and are kept apart here.

Experiments:
SKVLB = experiment: Microculture tetrazolium assay; type: cell-based; conditions: for VLB/OV3: IC50 ratio SKVLB/SKOV3; for IC50: SKVLB
T47D = experiment: Microculture tetrazolium assay; type: cell-based
LOX = experiment: Microculture tetrazolium assay; type: cell-based; conditions: read-out: IC50
Leukemia = experiment: NCI assay, average per cancer type; conditions: for CC50: 48 h, read-out: Average LOG10 LC50; for Average LOG10 LC50: Leukemia, 2880 min; for GI50: read-out: Average LOG10 GI50
NSC Lung = experiment: NCI assay, average per cancer type; conditions: for CC50 / GI50: Homo sapiens; for CC50: 48 h, read-out: Average LOG10 LC50; for GI50: read-out: Average LOG10 GI50; for Average LOG10 LC50: NSC Lung, 2880 min
SC Lung = experiment: NCI assay, average per cancer type; conditions: for GI50 / CC50: Homo sapiens; for GI50: read-out: Average LOG10 GI50; for Average LOG10 LC50: SC Lung, 2880 min; for CC50: 48 h, read-out: Average LOG10 LC50
Colon = experiment: NCI assay, average per cancer type; conditions: for Average LOG10 LC50: Colon, 2880 min; for CC50 / GI50: Homo sapiens; for CC50: 48 h, read-out: Average LOG10 LC50; for GI50: read-out: Average LOG10 GI50
CNS = experiment: NCI assay, average per cancer type; conditions: for GI50 / CC50: Homo sapiens; for GI50: read-out: Average LOG10 GI50; for CC50: 48 h, read-out: Average LOG10 LC50
Melanoma = experiment: NCI assay, average per cancer type; conditions: for CC50 / GI50: Homo sapiens; for CC50: 48 h, read-out: Average LOG10 LC50; for GI50: read-out: Average LOG10 GI50; for Average LOG10 LC50: Melanoma, 2880 min
Ovarian = experiment: NCI assay, average per cancer type; conditions: for GI50 / CC50: Homo sapiens; for GI50: read-out: Average LOG10 GI50; for CC50: 48 h, read-out: Average LOG10 LC50
Renal = experiment: NCI assay, average per cancer type; conditions: for CC50 / GI50: Homo sapiens; for CC50: 48 h, read-out: Average LOG10 LC50; for GI50: read-out: Average LOG10 GI50; for Average LOG10 LC50: Renal, 2880 min
solid tumors = experiment: NCI assay, mean potency in solid tumors; conditions: for GI50 / CC50: Homo sapiens; for GI50: read-out: Average LOG10 GI50, Mean Potency in solid tumors; for Average LOG10 LC50, Mean Potency in solid tumors: 2880 min; for CC50: 48 h, read-out: Average LOG10 LC50, Mean Potency in solid tumors
tumor cell lines = experiment: NCI sulforhodamine B assay, all cell lines; conditions: Homo sapiens; for CC50 / IC100: 48 h; for CC50: read-out: Log10 LC50, Mean / MG-MID, all cell lines (converted); for IC100: read-out: Log10 TGI, Mean / MG-MID, all cell lines; for GI50: read-out: Log10 GI50, Mean / MG-MID, all cell lines (converted)
MCF7/ADR = experiment: Soft agar colony formation disk diffusion assay; type: cell-based, human; conditions: 100 μg/DISK
Source text: (§1) A more elaborate version of this fundamental assay, the soft agar colony formation disk diffusion assay was used. This assay defines the relative activity of one particular drug versus a tumoral cell line type. The effect of the test drug against tumoral cells could be measured by its inhibitory capacity against colony formation after the delivery of the compound, in different concentrations on an filter disk(4). A modified technique of this assay was used in order to investigate the antiproliferative activity of candidate compounds. Tumoral cells from solid tumors and ascitic lines were plated separately in a two layer agar matrix. Cell lines to be tested were suspended in an upper layer of 0.4% Noble agar (Difco#00142-01) in RPMI-1066 (Gibco#3201875) at a yield varying between 10^4 to 2×10^5 cells per 60 mm Petri dish. Plating efficiency was determined for each line in order to achieve an optimal number of colonies per dish. Plates were examined before drug administration to confirm a uniform dispersion of single cells. The bottom layer consisted of 0.8% Noble agar, 0.8% Tryptic Soy Broth (difco#0037001)in CMRL-1066/Fischer's. The bottom layers were used within 2 and 9 days of preparation. Plated dishes (bottom layer of agar, upper layer of cells and administered drug were incubated in humidified atmosphere at 37° C., 5% CO2 for 10-20 days depending upon the time necessary to observe adequate colonies (defined as a cell aggregate of more than 50 cells) both control and drug inhibited. Drugs were administered on a paper filter disk (Whatman No. 1) of 6.5 mm diameter placed on the upper layer at 1/3 distance from the edge of the dish. The anti-clonogenic activity of the compounds was measured as the zone of inhibition from the disk edge to the most proximal colonies. This zone of inhibition was checked on an inverted microscope (40×) and was measured with a micrometer mounted in the eyepiece. The ocular micrometer was calibrated with a stage micrometer set for a particular combination of ocular and objective lenses. […] We made a modification of the initial technique by not plating a solid tumor and a leukemia simultaneously in the same Petri dish. Anti-clonogenic tests performed on leukemia cell line have helped in the discovery of the majority of current clinically used cytostatic drugs. Our tests on solid tumor lines (animal or human) may help define active compounds with solid tumor specificity. […] HUMAN TUMORS. […] LS180 (13) and BE1(14) were obtained from the Oncology Dept. of the Montreal General Hospital. […] Cell lines were routinely passaged twice a week by trypsinization and maintained in 25, or 75-sq. cm Falcon Plastic flasks at 37° C., 5% CO2 in humidified atmosphere. Both compounds were dissolved in DMSO (1 mg/100 ul) and brought to final volume (250 ul) with Millipore deionized sterile water. Further dilutions were made with […] volume of 25 ul of freshly prepared solution was placed on the filter disk and allowed to dry.

MCF7 = experiment: Soft agar colony formation disk diffusion assay; type: cell-based, human; conditions: 100 μg/DISK
Source text: as §1

MATB.WT = experiment: Soft agar colony formation disk diffusion assay; type: cell-based, rat; conditions: 100 μg/DISK
Source text: (§2) A more elaborate version of this fundamental assay, the soft agar colony formation disk diffusion assay was used. This assay defines the relative activity of one particular drug versus a tumoral cell line type. The effect of the test drug against tumoral cells could be measured by its inhibitory capacity against colony formation after the delivery of the compound, in different concentrations on an filter disk(4). A modified technique of this assay was used in order to investigate the antiproliferative activity of candidate compounds. Tumoral cells from solid tumors and ascitic lines were plated separately in a two layer agar matrix. Cell lines to be tested were suspended in an upper layer of 0.4% Noble agar (Difco#00142-01) in RPMI-1066 (Gibco#3201875) at a yield varying between 10^4 to 2×10^5 cells per 60 mm Petri dish. Plating efficiency was determined for each line in order to achieve an optimal number of colonies per dish. Plates were examined before drug administration to confirm a uniform dispersion of single cells. The bottom layer consisted of 0.8% Noble agar, 0.8% Tryptic Soy Broth (difco#0037001)in CMRL-1066/Fischer's. The bottom layers were used within 2 and 9 days of preparation. Plated dishes (bottom layer of agar, upper layer of cells and administered drug were incubated in humidified atmosphere at 37° C., 5% CO2 for 10-20 days depending upon the time necessary to observe adequate colonies (defined as a cell aggregate of more than 50 cells) both control and drug inhibited. Drugs were administered on a paper filter disk (Whatman No. 1) of 6.5 mm diameter placed on the upper layer at 1/3 distance from the edge of the dish. The anti-clonogenic activity of the compounds was measured as the zone of inhibition from the disk edge to the most proximal colonies. This zone of inhibition was checked on an inverted microscope (40×) and was measured with a micrometer mounted in the eyepiece. The ocular micrometer was calibrated with a stage micrometer set for a particular combination of ocular and objective lenses. […] We made a modification of the initial technique by not plating a solid tumor and a leukemia simultaneously in the same Petri dish. Anti-clonogenic tests performed on leukemia cell line have helped in the discovery of the majority of current clinically used cytostatic drugs. Our tests on solid tumor lines (animal or human) may help define active compounds with solid tumor specificity. […] Murine tumors were maintained IN VIVO in order to diminish the selection of subpopulations of cells normally present in the heterogenous IN VIVO tumor. The actual drug sensitivity assay was done IN VITRO. For these experiments cells from freshly excised tumors or from ascitic fluids were maintained in RPMI-1066. Both compounds were dissolved in DMSO (1 mg/100 ul) and brought to final volume (250 ul) with Millipore deionized sterile water. Further dilutions were made with […] volume of 25 ul of freshly prepared solution was placed on the filter disk and allowed to dry.

MATB/ADR = experiment: Soft agar colony formation disk diffusion assay; type: cell-based, rat
Source text: as §2

SKOV3 = experiment: Microculture tetrazolium assay; type: cell-based; conditions: Homo sapiens, SK-OV-3, SKOV3; read-out: IC50

Row | Structure (SMILES) | CC50 (Leukemia) | GI50 (Leukemia) | CC50 (NSC Lung) | GI50 (NSC Lung) | GI50 (SC Lung) | CC50 (Colon) | GI50 (Colon) | GI50 (CNS) | CC50 (Melanoma) | GI50 (Melanoma) | GI50 (Ovarian) | CC50 (Renal) | GI50 (Renal) | GI50 (solid tumors) | CC50 (SC Lung) | CC50 (CNS) | CC50 (Ovarian) | CC50 (solid tumors) | CC50 (tumor cell lines) | IC100 (tumor cell lines) | other results
1 | COc1cccc2c1C(=O)c1c(O)c3c(c(O)c1C2=O)C[C@@](O)(C(=O)CO)C[C@@H]3O[C@H]1C[C@H](N)[C@H](O)[C@H](C)O1 [ADR, reference compound] | 17.4 µM | 0.0309 µM | 9.77 µM | 0.0468 µM | 0.0537 µM | 13.8 µM | 0.245 µM | 0.0851 µM | 2.75 µM | 0.12 µM | 0.282 µM | 13.5 µM | 0.182 µM | 0.117 µM |  |  |  |  |  |  | VLB/OV3 (SKVLB; listed as Adriamycin): 82.63 and 121.5; IC50 (SKVLB): 4.72 µM; IC50 (T47D; Homo sapiens): 0.0763 µM; IC50 (T47D; listed as Adriamycin): 0.072 µM; IC50 (LOX): 0.0437 µM; Average LOG10 LC50 (Leukemia): -4.76 ± 0.10 log molar; Average LOG10 LC50 (NSC Lung): -5.01 ± 0.26 log molar; Average LOG10 LC50 (SC Lung): -5.39 ± 0.18 log molar; Average LOG10 LC50 (Colon): -4.86 ± 0.27 log molar; Average LOG10 LC50 (Melanoma): -5.56 ± 0.29 log molar; Average LOG10 LC50 (Renal): -4.87 ± 0.38 log molar; Average LOG10 LC50, Mean Potency in solid tumors (solid tumors): -5.07 ± 0.28 log molar
2 | COC(=O)[C@H]1CC2=C(C(=O)c3cc4ccccc4cc3C2=O)[C@H](O[C@H]2C[C@H](NC(=O)C(F)(F)F)[C@H](O)[C@H](C)O2)O1 [BCH-670] | > 100 µM | 1.66 µM | 24 µM | 3.09 µM | 3.31 µM | 25.1 µM | 2.04 µM | 3.63 µM | 20.4 µM | 1.78 µM | 3.8 µM | 29.5 µM | 4.37 µM | 3.02 µM | 38.9 µM | 26.3 µM | 39.8 µM | 26.9 µM | 29.5 µM | 8.32 µM | GI50 (tumor cell lines): 2.75 µM
3 | COC(=O)[C@@H]1CC2=C(C(=O)c3cc4ccccc4cc3C2=O)[C@H](O[C@H]2C[C@H](NC(=O)C(F)(F)F)[C@H](O)[C@H](C)O2)O1 [BCH-672] | 42.7 µM | 1.29 µM | 27.5 µM | 3.55 µM | 2.04 µM | 28.2 µM | 1.66 µM | 4.68 µM | 21.4 µM | 1.55 µM | 3.16 µM | 24 µM | 4.17 µM | 2.75 µM | 39.8 µM | 31.6 µM | 25.7 µM | 27.5 µM | 26.9 µM | 7.94 µM | GI50 (tumor cell lines): 2.63 µM
4 | CCOC(=O)[C@@H]1CC2=C(C(=O)c3c(cc4ccccc4c3O)C2=O)[C@@H](O[C@H]2C[C@H](NC(=O)C(F)(F)F)[C@H](O)[C@H](C)O2)O1 [BCH-673] | > 100 µM | 1.07 µM | 21.9 µM | 1.74 µM | 1.82 µM | 34.7 µM | 0.794 µM | 2.24 µM | 13.5 µM | 1.48 µM | 1.55 µM | 11 µM | 1.58 µM | 1.55 µM | 36.3 µM | 26.9 µM | 21.9 µM | 21.9 µM | 20.9 µM | 4.47 µM | GI50 (tumor cell lines): 1.48 µM
5 | CCOC(=O)C1Cc2c(OCC)c3c(c(O)c2C(O[C@H]2C[C@H](NC(=O)C(F)(F)F)[C@H](O)[C@H](C)O2)O1)C(=O)c1ccccc1C3=O (stereo partly drawn) [BCH-705] |  |  |  |  |  |  |  |  |  |  |  |  |  |  |  |  |  |  |  |  | zone of inhibition (MCF7/ADR): 35.5 ± 7.3 Zone Units; zone of inhibition (MCF7): 79.3 ± 8.6 Zone Units; zone of inhibition (MATB.WT): 259.2 ± 21.5 Zone Units; cross resistance with adriamycin, MATB/ADR vs MATB.WT (MATB/ADR): no cross resistance with adriamycin; zone of inhibition (MATB/ADR; 100 μg/DISK): 155.5 ± 4.3 Zone Units; IC50 (SKOV3): 12.9 µM; VLB/OV3 (SKVLB): 1.09; IC50 (SKVLB; read-out: IC50): 14.1 µM
6 | COc1cccc2c1C(=O)c1c(O)c3c(c(O)c1C2=O)C[C@@](O)(C(C)=O)C[C@@H]3O[C@H]1C[C@H](N)[C@H](O)[C@H](C)O1 [DNM, reference compound] | 50.1 µM | 0.0562 µM | 8.51 µM | 0.0912 µM | 0.0724 µM | 14.8 µM | 0.151 µM | 0.0912 µM | 2.29 µM | 0.112 µM | 0.138 µM | 16.6 µM | 0.162 µM | 0.112 µM |  |  |  |  |  |  | Average LOG10 LC50 (Leukemia): -4.30 ± 0.36 log molar; Average LOG10 LC50 (NSC Lung): -5.07 ± 0.37 log molar; Average LOG10 LC50 (SC Lung): -5.58 ± 0.09 log molar; Average LOG10 LC50 (Colon): -4.83 ± 0.37 log molar; Average LOG10 LC50 (CNS; CNS, 2880 min): -5.08 ± 0.42 log molar; Average LOG10 LC50 (Melanoma): -5.64 ± 0.17 log molar; Average LOG10 LC50 (Ovarian; Ovarian, 2880 min): -4.78 ± 0.20 log molar; Average LOG10 LC50 (Renal): -4.78 ± 0.46 log molar; Average LOG10 LC50, Mean Potency in solid tumors (solid tumors): -5.11 ± 0.34 log molar
